Test system: synchronous late-stage P. falciparum iRBC
Assay type: cell-based, Plasmodium falciparum CS2
Conditions: late-stage iRBC, 1, 2, 5, 10, 15 or 20 μM, 24 h post-treatment, flow cytometry

With “FAM-βAla-ILGST*LKG*AQQTSAFLK (sidechain bridge or staple) [JDD scramble]” the “effect on parasite viability at any concentration tested” value was “no effect on parasite viability”.
